Columns and labels:
[1] = Dissolution of substrate in the reagents of Example 3; assay type: physicochemical; conditions: reagents of Example 3 without their substrates, 50 mM Good Buffer pH 7.0; substrate 2 mM in Example 3
Excerpt: An attempt was made to use the substrates listed below instead of the substrates in Example 3, but the former substrates were not dissolved in the reagents in Example 3 (excluding substrates in Example 3).

[2] = tested on: α-Glucosidase, β-Glucosidase; assay: Variation in blank value of reagent with time (absorbance at 400 nm), reagent with α-glucosidase and β-glucosidase; assay type: biochemical; conditions: substrate 2 mM
Description: Reagents having the following composition were prepared.
50 mM Good Buffer (pH 7.0)
Substrate (see Table 1) 2 mM
Immediately after the preparation of the reagents, after 10 minutes, 20 minutes and 30 minutes, the absorbance of each reagent at 400 nm was determined (3 ml of reagent sample; 37° C.).
The reagent having the following composition was prepared:
(§1) Substrate (see Table 2) 2 mM

[3] = tested on: α-Glucosidase, β-Glucosidase, Glucoamylase; assay: Variation in blank value of reagent with time (absorbance at 400 nm), reagent with α-glucosidase, β-glucosidase and glucoamylase; assay type: biochemical; conditions: Table 2, glucoamylase added (10 U/ml), substrate 2 mM; for Absorbance at 400 nm (blank value), on reaction initiation: pH 7.0, α-glucosidase 80 U/ml, β-glucosidase 10 U/ml; for Absorbance at 400 nm (blank value), after 10 min. / Absorbance at 400 nm (blank value), after 20 min. / Absorbance at 400 nm (blank value), after 30 min.: pH 7.0
Description: (§2) With this reagent, variation in absorbance was determined in a similar manner to Example 2. A 3 ml quantity of the reagent was added to […] of sample serum and allowed to stand for 5-6 minutes at 37° C. and thereafter, the variation in absorbance at 400 nm was determined and the change in absorbance per one minute which is an indication of amylase activity was calculated The variation in blank value of the reagent with time and the change in absorbance per minute are shown in Table 2 below.
The reagent of the following composition was prepared:
as §1

[4] = tested on: α-amylase; assay: Change in absorbance per minute at 400 nm with sample serum (indication of amylase activity); assay type: biochemical; conditions: 3 ml reagent added to sample serum, 5-6 minutes at 37° C.
Description: as §2

[5] = Table 1, 50 mM Good Buffer pH 7.0, α-glucosidase 80 U/ml, β-glucosidase 10 U/ml, 37° C., immediately after preparation
[6] = Table 1, pH 7.0, α-glucosidase 80 U/ml, β-glucosidase 10 U/ml, 37° C.
[7] = Table 2, no glucoamylase, pH 7.0

| Solubility of substrate in the reagents in Example 3 [1] | SMILES | Absorbance at 400 nm (blank value), on reaction initiation [2, 5] | Absorbance at 400 nm (blank value), after 10 min. [2, 6] | Absorbance at 400 nm (blank value), after 20 min. [2, 6] | Absorbance at 400 nm (blank value), after 30 min. [2, 6] | Absorbance at 400 nm (blank value), on reaction initiation [3] | Absorbance at 400 nm (blank value), after 10 min. [3] | Absorbance at 400 nm (blank value), after 20 min. [3] | Absorbance at 400 nm (blank value), after 30 min. [3] | Change in absorbance ([4]; glucoamylase added (10 U/ml)) | further results |
| --- | --- | --- | --- | --- | --- | --- | --- | --- | --- | --- | --- |
| not dissolved | O=[N+]([O-])c1ccc(O[C@@H]2O[C@H](CO)[C@@H](O[C@H]3O[C@H](CO)[C@@H](O[C@H]4O[C@H](CO)[C@@H](O[C@H]5O[C@H](CO)[C@@H](O[C@H]6O[C@@H]7COC(c8ccccc8)O[C@H]7[C@H](O)[C@H]6O)[C@H](O)[C@H]5O)[C@H](O)[C@H]4O)[C@H](O)[C@H]3O)[C@H](O)[C@H]2O)c(Cl)c1 (stereo partly drawn) [Benzylidene 2-chloro-4-nitrophenyl-β-maltopentaoside] | – | – | – | – | – | – | – | – | – | – |
| – | CC(=O)CC1OC[C@H]2O[C@H](O[C@H]3[C@H](O)[C@@H](O)[C@@H](O[C@H]4[C@H](O)[C@@H](O)[C@@H](O[C@H]5[C@H](O)[C@@H](O)[C@@H](O[C@H]6[C@H](O)[C@@H](O)[C@H](Oc7ccc([N+](=O)[O-])cc7Cl)O[C@@H]6CO)O[C@@H]5CO)O[C@@H]4CO)O[C@@H]3CO)[C@H](O)[C@@H](O)[C@@H]2O1 (stereo partly drawn) [Example 2, 3-ketobutylidene 2-chloro-4-nitrophenyl-β-maltopentaoside] | 0.049 | 0.049 | 0.049 | 0.050 | 0.051 | 0.051 | 0.051 | 0.052 | 0.157 per minute | Absorbance at 400 nm (blank value), on reaction initiation ([2]; Table 2, no glucoamylase, pH 7.0, α-glucosidase 80 U/ml, β-glucosidase 10 U/ml): 0.050; Absorbance at 400 nm (blank value), after 10 min. [2, 7]: 0.051; Absorbance at 400 nm (blank value), after 20 min. [2, 7]: 0.051; Absorbance at 400 nm (blank value), after 30 min. [2, 7]: 0.051; Change in absorbance ([4]; no glucoamylase): 0.123 per minute |
| not dissolved | CC1(C)OC[C@H]2O[C@H](O[C@H]3[C@H](O)[C@@H](O)[C@@H](O[C@H]4[C@H](O)[C@@H](O)[C@@H](O[C@H]5[C@H](O)[C@@H](O)[C@@H](O[C@H]6[C@H](O)[C@@H](O)[C@H](Oc7ccc([N+](=O)[O-])cc7Cl)O[C@@H]6CO)O[C@@H]5CO)O[C@@H]4CO)O[C@@H]3CO)[C@H](O)[C@@H](O)[C@@H]2O1 [Isopropylidene 2-chloro-4-nitrophenyl-β-maltopentaoside] | – | – | – | – | – | – | – | – | – | – |
| not dissolved | O=[N+]([O-])c1ccc(O[C@@H]2O[C@H](CO)[C@@H](O[C@H]3O[C@H](CO)[C@@H](O[C@H]4O[C@H](CO)[C@@H](O[C@H]5O[C@H](CO)[C@@H](O[C@H]6O[C@@H]7COCO[C@H]7[C@H](O)[C@H]6O)[C@H](O)[C@H]5O)[C@H](O)[C@H]4O)[C@H](O)[C@H]3O)[C@H](O)[C@H]2O)c(Cl)c1 [Methylidene 2-chloro-4-nitrophenyl-β-maltopentaoside] | – | – | – | – | – | – | – | – | – | – |
| – | O=[N+]([O-])c1ccc(O[C@@H]2O[C@H](CO)[C@@H](O[C@H]3O[C@H](CO)[C@@H](O[C@H]4O[C@H](CO)[C@@H](O[C@H]5O[C@H](CO)[C@@H](O[C@H]6O[C@H](CO)[C@@H](O)[C@H](O)[C@H]6O)[C@H](O)[C@H]5O)[C@H](O)[C@H]4O)[C@H](O)[C@H]3O)[C@H](O)[C@H]2O)c(Cl)c1 [compound 1, 2-chloro-4-nitrophenyl-β-maltopentaoside, reference compound] | 0.251 | 0.273 | 0.293 | 0.323 | 0.132 | 0.162 | 0.192 | 0.223 | 0.136 per minute | – |

From US4987067A, “Maltooligosaccharide derivatives and reagents for determination of amylase activity” (Yoshitomi Pharmaceutical Industries, Ltd., priority 1987, dated 1991)
